The test system of one assay is KB cells. The settings on record: against KB cells; Isaka et al. 2002; cited from earlier work.
For a further assay, the system named is HSP90. The assay can be described thus: binding of aigialomycin D to HSP90. The following applies: compared with radicicol.
A further assay has as its system P. falciparum. The settings on record: against P. falciparum; Isaka et al. 2002; cited from earlier work.
In assay [1] the test system is small cell lung cancer cell line with defective Rb function. Briefly: inhibition of small cell lung cancer cells with defective Rb function. Type of assay: cell-based, human. The following applies: for inhibition of small cell lung cancer cell line with defective Rb function / potency compared with 17-AGG in small cell lung cancer cell line with defective Rb function: FIG. 20. Here is the method:
(§1) The human cancer cell lines MCF7, BT474 and N417 were obtained from the American Type Culture Collection (Manassas, Va., USA) and maintained in a 1:1 mixture of DME:F12 supplemented with 2 mM glutamine, 50 U/mL penicillin, 50 U/mL streptomycin and 5% heat inactivated fetal bovie serum (Gemini Bioproducts) and incubated at 37° C. in 5% CO2.
(§2) Growth assays were performed by seeding 10000 cells (MCF7, BT474 or N417) per well in 6-well dishes and incubating for 24 h before drug treatment. Drugs or vehicle were administered as outlined for each experiment, and cells were incubated for the time periods depcited and then the number quantified by a Coulter counter.

The subject of another assay is HER2. Briefly: reduction of HER2 in MCF7 and BT474 cells (protein assay, anti-Her2 blot). In kind it is cell-based, human. The settings on record: 0.5 μM through 5 μM. Here is the method: The human cancer cell lines MCF7, BT474 and […] were obtained from the American Type Culture Collection (Manassas, Va., USA) and maintained in a 1:1 mixture of DME:F12 supplemented with 2 mM glutamine, 50 U/mL penicillin, 50 […] and 5% heat inactivated fetal bovie serum (Gemini Bioproducts) and incubated at 37° C. in 5% CO2. Cells were grown to 60-70% confluence and exposed to drugs or DMSO vehicle for the indicated time periods. Lysates were prepared using 5 mM Tris pH 7.4, 2% SDS and 10% glycerol lysis buffer. Protein concentration was determined using the BCA kit (Pierce Chemical Co.) according to the manufacturer's instructions. Clarified protein lysates (20-50 μg) were electrophoretically resolved on denaturing SDS-PAGE, transferred to ntirocellulose and probed with the following primary antibodies: anti-Her2 (C-18).

Assay [2] has as its system breast cancer cell with wild type Rb. The assay can be described thus: inhibition of breast cancer cells with wild type Rb. The following applies: FIG. 20. In kind it is cell-based, human. Here is the method:
as §1, §2

The test system of assay [3] is MCF7 cells (HER2 overexpressed, Rb positive). Briefly: growth of MCF7 cells treated with radicicol and analogues. In kind it is cell-based, human. Here is the method: as §1, §2
Assay [4] has as its system Rb (retinoblastoma) positive cells. Briefly: cell cycle effect in Rb positive cells. In kind it is cell-based. Here is the method:
(§3) Cell cycle distribution was assayed according to Nusse et al. with a Becton Dickinson fluorescence-activated cell sorter and analyzed by a Cell Cycle Multi-cycle system (Phoenix Flow System, San Diego, Calif., USA).

The test system of a further assay is Rb negative cells. The assay can be described thus: cell cycle effect in Rb negative cells. In kind it is cell-based. Here is the method:
as §3

`C[C@H]1C/C=C/[C@@H](O)[C@@H](O)CC/C=C/c2cc(O)cc(O)c2C(=O)O1` [Aigialomycin D]: the “antitumor activity IC50” value in the assay with KB cells was 3.0 µg/mL. The “binding to HSP90” value in the assay with HSP90 was “does bind to HSP90 (though significantly less so than radicicol (2))”. The “antimalarial activity IC50” value with P. falciparum is 6.6 µg/mL.
Regarding `C[C@@H]1C[C@H]2C[C@@H]2/C=C\C=C\C(=O)Cc2c(Cl)c(O)cc(O)c2C(=O)O1` [cyclopropyl radicicol, Cycloproparadicicol], in [1], the “inhibition of small cell lung cancer cell line with defective Rb function” value was “potent inhibitors” and the “potency compared with 17-AGG in small cell lung cancer cell line with defective Rb function” value is recorded as “much more potent than 17-AGG”. Further, the “effectiveness in reducing HER2 compared with radicicol” value in the assay on HER2 is on record as “at least as effective, if not better than radicicol”. Further, in [2], the “inhibition of breast cancer cell with wild type Rb” value is “potent inhibitors”.
For `C[C@@H]1C[C@H]2O[C@@H]2/C=C\C=C\C(=O)Cc2c(Cl)c(O)cc(O)c2C(=O)O1` [Radicicol], the “efficacy in side by side experiment with radicicol (growth of MCF7 cells, FIG. 19)” value in assay [3] is listed as “demonstrated efficacy”. Besides, in assay [1], the “inhibition of small cell lung cancer cell line with defective Rb function” value is listed as “potent inhibitors” and the “potency compared with 17-AGG in small cell lung cancer cell line with defective Rb function” value was “much more potent than 17-AGG”. Moreover, the “inhibition of breast cancer cell with wild type Rb” value in assay [2] is “potent inhibitors”. The “cell cycle block in Rb positive cells” value in assay [4] is listed as “clear G1 (growth) phase block”. The “cell cycle block in Rb negative cells” value with Rb negative cells is recorded as “blocked in the M (mitosis) phase”.
In the case of `C=CCNC1=C2C[C@@H](C)C[C@H](OC)[C@H](O)[C@@H](C)/C=C(\C)[C@H](OC(N)=O)[C@@H](OC)/C=C\C=C(/C)C(=O)NC(=CC1=O)C2=O` [17-AGG, 17-allylaminogeldanamycin], the “potency in cells with wild type Rb versus cells with defective Rb function” value in assay [1] (wild type Rb vs defective Rb) is on record as “much more potent against cells with wild type Rb than in cells with defective Rb function”.
With radicicol oxime [VII], the “efficacy in side by side experiment with radicicol (growth of MCF7 cells, FIG. 19)” value in assay [3] is “demonstrated efficacy”.

Source of the values: patent US7115651B2, “Macrocycles and uses thereof” (Sloan-Kettering Institute for Cancer Research, priority 2000, dated 2006).
